Experimental data published in patent US20240228491A1, “METHIONINE ADENOSYLTRANSFERASE INHIBITOR, PREPARATION METHOD THEREFOR AND APPLICATION THEREOF” (SCINNOHUB PHARMACEUTICAL CO., LTD., priority 2021, published 2024).

What was measured:
MAT2a = MAT2a (Homo sapiens (Human), UniProt P31153); assay: MAT2a enzymatic activity test (colorimetric assay); format: biochemical; details: OD620, 150 min reaction, read-out: IC50 against MAT2a
Procedure: The Colorimetric assay method was used to detect the IC50 value of the tested compounds on MAT2a.
The specific steps were as follows: The compounds having the test starling concentration of 1 μM or 10 μM were diluted into 10 concentration points in a 3-fold gradient. 250 nL of the solutions of the compounds to be tested with 10 different concentrations were taken and added into a 384 well plate for later use. 20 μg/mL of MAT2a enzyme solution was prepared with Assay buffer (50 mM Tris, 50 mM KCl, 10 mM MgCl2, 0.05% polyoxyethylene lauryl ether, pH 8.0). 15 μL of the MAT2a enzyme solution at 20 μg/mL was add into the wells of the compounds to be tested at different concentrations; and 15 μL of Assay buffer was added into the negative control well. An incubation was carried out for 15 minutes after shaking for mixing well. A mixed substrate solution (comprising 400 μM ATP and 600 μM L-Methionine) was prepared with Assay buffer. 10 μL of the mixed substrate solution was added to the positive control well, the compound to be tested well, and the negative control well, respectively, and the reaction began, for a reaction time of 150 min. Then, 50 μL of the reaction stop solution (BIOMOL Green™ Reagent Enzo lifesciences, Cargo No. BML-AK111-1000) was added to stop the reaction, followed by being centrifuged at 1000 rpm for 60 s and then being incubated for 15 min. OD620 was read and data were processed.
By using the log value of the concentration as the X-axis and the inhibition % as the Y-axis, the IC50 value of each compound against enzyme activity was obtained through employing the log(inhibitor) vs. response-Variable slope fitting dose-effect curve of the analysis software GraphPad Prism 5.

HCT116 MTAP-/- cells = assay: Activity test of HCT116 MTAP gene homozygous deletion cells (CellTiter-Glo); format: cell-based; details: Homo sapiens, HCT-116, 120 h incubation, read-out: HCT116 MTAP-/- Cell IC50
Procedure: On day 1, cell seeding: after digestion of the cells with trypsin, the cells were resuspended to the desired density with the complete medium (RPMI-1640 supplemented with 10% FBS; the brand of FBS is EXCELL, Cat. No. FND500; the brand of RPMI-1640 is ATCC, Cat. No. 30-2001), mixed evenly, and added into the 96-well plate at 100 μL/well with a cell density of 1000-3000 cells per well. The plate was put back to the incubator for the adherent growth of cells. On day 2, the addition of the compounds to be tested: before the addition of the compounds, the cells were starved with serum-free medium for 4 h, then the complete medium containing the corresponding concentration of compounds was added thereto, and the cells were incubated at 37° C., 5% CO2 for 120 h. On day 7, the cell culture plates were taken out from incubator and equilibrated to room temperature. 50 μL of CellTiter-Glo (Promega Company, Cat. No. G7571) reagent was added per well, and the cells were fully lysed by shaking at room temperature for 2 min, and then incubated for another 60 min to detect the fluorescence intensity. Calculation formula:
(§1) % Inhibition=100−(signal of the well with the compound to be tested−signal of the well with only medium and free of cells)/(signal of the well with cells but without addition of the compound−signal of the well with only medium and free of cells)×100.
The fitting dose-effect curve of the analysis software GraphPad Prism 5 was used to give IC50 values of the individual compounds against cellular activity.

KP-4 cells = assay: Inhibitory activity test of KP-4 cells; format: cell-based; details: Homo sapiens, 144 h incubation, read-out: KP-4 cell inhibitory activity IC50
Procedure: On day 1, cell seeding: after digestion of the cells with trypsin, the cells were resuspended to 1*10^4/mL with RPMI1640 complete medium (HyClone Company, Cat. No. SH30809.01) supplemented with 10% FBS (Gibco, 10099141C), mixed evenly, and added into the 96-well plate at 100 μL/well. The plate was put back to the incubator for the adherent growth of cells. On day 2, the addition of the compounds to be tested: 100 μL of the complete medium containing the compounds (the concentration of the compound in the medium was formulated as follows: 3-fold gradient dilution from 60 μM, 10 concentration gradients in total) was added, incubated for 144 hours at 37° C., 5% CO2. On day 8, the cell culture plates were taken out from incubator and equilibrated to room temperature, excess medium was pipetted from the wells so that 50 μL of supernatant was retained, and 50 μL of CellCounting-Lite 2.0 (Nanjing Vazyme Biotech Co., Ltd., Cat. No. DD1101) reagent was added per well, and the cells were fully lysed by shaking at room temperature for 10 min, and incubated for 5 min to detect the fluorescence intensity.
as §1
(§2) The log value of concentration was used as the X-axis and % Inhibition was used as the Y-axis, so as to fit the dose-effect curve and calculate the IC50 value using nonlinear regression (dose response−variable slope) in the analysis software GraphPad Prism 8.

DOHH-2 cells = assay: Inhibitory activity test of DOHH-2 cells; format: cell-based; details: Homo sapiens, 120 h incubation, CellTiter-Glo, read-out: DOHH-2 cell inhibitory activity IC50
Procedure: On day 1, cell seeding: cells were resuspended to the desired density with DMEM complete medium (Gibico, Cat. No. 10569010) supplemented with 10% FBS (Gibco, 10099141C), mixed evenly, and added into the 384-well plate at 30 μL/well with a cell density of 800/well. The compounds to be tested were added as follows: 30 nL of DMSO solution containing the compound (the concentration of the compound in which was formulated as: 3-fold gradient dilution from 10 mM, 10 concentration points in total) was added, incubated for 120 h at 37° C., 5% CO2. On day 6, the cells treated with compounds were removed and equilibrated to room temperature, 30 μL of CellTiter-Glo (Promega company, Cat. No. G7573) reagent was added per well, and the cells were fully lysed by shaking at room temperature, and then incubated in dark at 37° C., 5% CO2 for 30 min, to detect the fluorescence intensity.
% Inhibition=100−(signal of the well with the compound to be tested−signal of the well with only medium and free of cells)/(signal of the well with cells but without the addition of the compound−signal of the well with only medium and free of cells)×100.
as §2

Sequence of MAT2a (P31153 whole entry): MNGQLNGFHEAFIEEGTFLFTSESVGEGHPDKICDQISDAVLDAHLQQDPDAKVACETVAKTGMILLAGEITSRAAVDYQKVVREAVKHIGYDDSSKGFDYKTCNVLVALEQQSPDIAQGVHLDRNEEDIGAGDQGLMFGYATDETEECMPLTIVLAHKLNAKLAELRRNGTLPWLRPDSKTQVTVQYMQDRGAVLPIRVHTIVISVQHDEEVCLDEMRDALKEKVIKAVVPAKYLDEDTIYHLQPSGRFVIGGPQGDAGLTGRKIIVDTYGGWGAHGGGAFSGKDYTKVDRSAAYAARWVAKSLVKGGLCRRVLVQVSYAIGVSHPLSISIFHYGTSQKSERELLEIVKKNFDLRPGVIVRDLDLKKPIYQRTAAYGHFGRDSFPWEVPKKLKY

- IC50 (MAT2a): 16.1 nM
- IC50 (HCT116 MTAP-/- cells): 13.3 nM
- IC50 (KP-4 cells): 170 nM
SMILES: COCCn1cc2cc(-c3c(N)c4ccc(C(F)(F)F)nc4n(-c4ccc(Cl)cc4)c3=O)ccc2n1 [Example 48]
- IC50 (DOHH-2 cells): 518 nM
